This note sets out measurements from patent US8134015B2, “Compound inhibiting in vivo phosphorous transport and medicine containing the same” (Kyowa Hakko Kirin Co., Ltd., priority 2003, dated 2012).

Some results are limits rather than exact numbers.

This test addresses T1, rat NaPi-2b (Rattus norvegicus, UniProt Q9JJ09).
T1 construct: expressed in transfected cells; host or cells: Xenopus oocytes injected with cRNA
T1 sequence (Q9JJ09 1-695): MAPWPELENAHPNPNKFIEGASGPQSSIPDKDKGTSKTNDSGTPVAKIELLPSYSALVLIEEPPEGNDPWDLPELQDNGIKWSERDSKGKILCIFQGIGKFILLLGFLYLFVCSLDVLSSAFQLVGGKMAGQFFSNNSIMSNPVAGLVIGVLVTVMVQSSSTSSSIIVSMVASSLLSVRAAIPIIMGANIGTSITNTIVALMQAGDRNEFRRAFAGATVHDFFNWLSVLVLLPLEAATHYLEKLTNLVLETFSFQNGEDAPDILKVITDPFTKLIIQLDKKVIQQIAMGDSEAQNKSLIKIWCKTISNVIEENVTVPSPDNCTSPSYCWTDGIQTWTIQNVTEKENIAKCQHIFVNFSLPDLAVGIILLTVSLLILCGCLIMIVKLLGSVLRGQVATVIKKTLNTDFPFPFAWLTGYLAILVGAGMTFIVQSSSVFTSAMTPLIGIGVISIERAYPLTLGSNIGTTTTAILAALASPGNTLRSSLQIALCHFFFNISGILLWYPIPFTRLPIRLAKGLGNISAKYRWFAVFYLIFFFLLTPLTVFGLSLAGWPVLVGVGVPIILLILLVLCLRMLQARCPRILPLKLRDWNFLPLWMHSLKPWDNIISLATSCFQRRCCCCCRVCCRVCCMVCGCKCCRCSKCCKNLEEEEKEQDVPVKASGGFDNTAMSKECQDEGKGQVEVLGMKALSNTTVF
The test is described as follows: Sodium-dependent phosphate uptake of Xenopus oocytes which expressed NaPi-2b (32P). It is filed as cell-based. Particulars: Xenopus oocytes expressing rat NaPi-2b, 32P radioactive phosphorus; read-out: IC50 (phosphate uptake inhibitory activity). A digest of the protocol: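 Percent inhibition at 300 μM and 100 μM comes from the same inhibition curve of 32P uptake. Assay used oocytes expressing rat NaPi-2b after 2 days of culture.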

One may read the IC50 as the midpoint of a concentration-inhibition curve. As for `Cc1ccc(/C=N/NC(=O)c2c(C)csc2NC(=O)c2cccc(CN(CC(C)O)CC(C)O)c2)cc1` (stereo not drawn) [Compound 588, 3-{[Bis-(2-hydroxy-propyl)-amino]-methyl}-N-[4-methyl-3-(4-methyl-benzylidene-hydrazinocarbonyl)-thiophen-2-yl]-benzamide], the IC50 was 9.33 µM.

On to `Cc1csc(NC(=O)c2cccc(CN(CC(C)O)CC(C)O)c2)c1C(=O)N/N=C/c1ccc(F)cc1` (stereo not drawn) [Compound 589, 3-{[Bis-(2-hydroxy-propyl)-amino]-methyl}-N-[3-(4-fluoro-benzylidene-hydrazinocarbonyl)-4-methyl-thiophen-2-yl]-benzamide], for which the IC50 was under 3 µM. With `Cc1csc(NC(=O)c2cccc(CN(CC(C)O)CC(C)O)c2)c1C(=O)N/N=C/c1cccc(F)c1` (stereo not drawn) [Compound 590, 3-{[Bis-(2-hydroxy-propyl)-amino]-methyl}-N-[3-(3-fluoro-benzylidene-hydrazinocarbonyl)-4-methyl-thiophen-2-yl]-benzamide] the figure was 6.18 µM; with `Cc1ccc(/C=N/NC(=O)c2c(C)csc2NC(=O)c2cccc(CN3CCC(O)CC3)c2)cc1C` [Compound 593, N-[3-(3,4-Dimethyl-benzylidene-hydrazinocarbonyl)-4-methyl-thiophen-2-yl]-3-(4-hydroxy-piperidin-1-ylmethyl)-benzamide], under 3 µM; with `Cc1ccc(/C=N/NC(=O)c2c(C)csc2NC(=O)c2cccc(CN3CCC(O)CC3)c2)cc1` [Compound 594, 3-(4-Hydroxy-piperidin-1-ylmethyl)-N-[4-methyl-3-(4-methyl-benzylidene-hydrazinocarbonyl)-thiophen-2-yl]-benzamide], 3.6 µM. Take `Cc1csc(NC(=O)c2cccc(CN3CCC(O)CC3)c2)c1C(=O)N/N=C/c1ccc(F)cc1` [Compound 595, N-[3-(4-Fluoro-benzylidene-hydrazinocarbonyl)-4-methyl-thiophen-2-yl]-3-(4-hydroxy-piperidin-1-ylmethyl)-benzamide]: the IC50 came out at 3.87 µM.

Regarding `Cc1csc(NC(=O)c2cccc(CN3CCC(O)CC3)c2)c1C(=O)N/N=C/c1cccc(F)c1` [Compound 596, N-[3-(3-Fluoro-benzylidene-hydrazinocarbonyl)-4-methyl-thiophen-2-yl]-3-(4-hydroxy-piperidin-1-ylmethyl)-benzamide], the half-inhibitory concentration (IC50) came to 5.47 µM. With `Cc1csc(NC(=O)c2cccc(CN3CCC(O)CC3)c2)c1C(=O)N/N=C/c1ccc(Cl)c(C(F)(F)F)c1` [Compound 597, N-[3-(4-Chloro-3-trifluoromethyl-benzylidene-hydrazinocarbonyl)-4-methyl-thiophen-2-yl]-3-(4-hydroxy-piperidin-1-ylmethyl)-benzamide] the figure was 1.47 µM; with `COc1ccc(/C=N/NC(=O)c2c(C)csc2NC(=O)c2cccc(CN3CCC(O)CC3)c2)cc1` [Compound 598, 3-(4-Hydroxy-piperidin-1-ylmethyl)-N-[3-(4-methoxy-benzylidene-hydrazinocarbonyl)-4-methyl-thiophen-2-yl]-benzamide], 53 µM; with `Cc1ccc(/C=N/NC(=O)c2c(C)csc2NC(=O)c2cccc(CN3CCC(CO)CC3)c2)cc1C` [Compound 599, N-[3-(3,4-Dimethyl-benzylidene-hydrazinocarbonyl)-4-methyl-thiophen-2-yl]-3-(4-hydroxymethyl-piperidin-1-ylmethyl)-benzamide], under 3 µM. With `Cc1ccc(/C=N/NC(=O)c2c(C)csc2NC(=O)c2cccc(CN3CCC(CO)CC3)c2)cc1` [Compound 600, 3-(4-Hydroxymethyl-piperidin-1-ylmethyl)-N-[4-methyl-3-(4-methyl-benzylidene-hydrazinocarbonyl)-thiophen-2-yl]-benzamide] the figure was 3.84 µM.

As for `Cc1csc(NC(=O)c2cccc(CN3CCC(CO)CC3)c2)c1C(=O)N/N=C/c1ccc(F)cc1` [Compound 601, N-[3-(4-Fluoro-benzylidene-hydrazinocarbonyl)-4-methyl-thiophen-2-yl]-3-(4-hydroxymethyl-piperidin-1-ylmethyl)-benzamide], the IC50 is under 3 µM.

As for `Cc1csc(NC(=O)c2cccc(CN3CCC(CO)CC3)c2)c1C(=O)N/N=C/c1cccc(F)c1` [Compound 602, N-[3-(3-Fluoro-benzylidene-hydrazinocarbonyl)-4-methyl-thiophen-2-yl]-3-(4-hydroxymethyl-piperidin-1-ylmethyl)-benzamide], the half-maximal inhibitory concentration (IC50) is 3.98 µM.

Consider `Cc1csc(NC(=O)c2cccc(CN3CCC(CO)CC3)c2)c1C(=O)N/N=C/c1ccc(Cl)c(C(F)(F)F)c1` [Compound 603, N-[3-(4-Chloro-3-trifluoromethyl-benzylidene-hydrazinocarbonyl)-4-methyl-thiophen-2-yl]-3-(4-hydroxymethyl-piperidin-1-ylmethyl)-benzamide], for which the half-maximal inhibitory concentration (IC50) is under 3 µM.

As for `COc1ccc(/C=N/NC(=O)c2c(C)csc2NC(=O)c2cccc(CN3CCC(CO)CC3)c2)cc1` [Compound 604, 3-(4-Hydroxymethyl-piperidin-1-ylmethyl)-N-[3-(4-methoxy-benzylidene-hydrazinocarbonyl)-4-methyl-thiophen-2-yl]-benzamide], the IC50 came to 9.23 µM. With `Cc1ccc(/C=N/NC(=O)c2c(NC(=O)c3cccc(CSCCCO)c3)sc3c2CCCC3)cc1C` [Compound 605, N-[3-(3,4-Dimethyl-benzylidene-hydrazinocarbonyl)-4,5,6,7-tetrahydro-benzo[b]thiophen-2-yl]-3-(3-hydroxy-propylsulfanyl-methyl)-benzamide], the 50% inhibitory concentration (IC50) was found to be 0.95 µM. With `O=C(Nc1sc2c(c1C(=O)N/N=C/c1ccc(F)cc1)CCCC2)c1cccc(CSCCCO)c1` [Compound 606, N-[3-(4-Fluoro-benzylidene-hydrazinocarbonyl)-4,5,6,7-tetrahydro-benzo[b]thiophen-2-yl]-3-(3-hydroxy-propylsulfanylmethyl)-benzamide] the figure was 1.01 µM. With `O=C(Nc1sc2c(c1C(=O)N/N=C/c1cccc(F)c1)CCCC2)c1cccc(CSCCCO)c1` [Compound 607, N-[3-(3-Fluoro-benzylidene-hydrazinocarbonyl)-4,5,6,7-tetrahydro-benzo[b]thiophen-2-yl]-3-(3-hydroxy-propylsulfanylmethyl)-benzamide] the figure was 0.43 µM; with `O=C(Nc1sc2c(c1C(=O)N/N=C/c1ccc(Cl)c(C(F)(F)F)c1)CCCC2)c1cccc(CSCCCO)c1` [Compound 608, N-[3-(4-Chloro-3-trifluoromethyl-benzylidene-hydrazinocarbonyl)-4,5,6,7-tetrahydro-benzo[b]thiophen-2-yl]-3-(3-hydroxy-propylsulfanylmethyl)-benzamide], under 0.3 µM. Take `CCN(CC)CCN(C)Cc1cccc(C(=O)Nc2sc3c(c2C(=O)N/N=C/c2ccc(C)c(C)c2)CCCC3)c1` [Compound 609, 3-{[(2-Diethylamino-ethyl)-methyl-amino]-methyl}-N-[3-(3,4-dimethyl-benzylidene-hydrazinocarbonyl)-4,5,6,7-tetrahydro-benzo[b]thiophen-2-yl]-benzamide]: the IC50 was under 0.3 µM.

On to `CCN(CC)CCN(C)Cc1cccc(C(=O)Nc2sc3c(c2C(=O)N/N=C/c2ccc(C)cc2)CCCC3)c1` [Compound 610, 3-{[(2-Diethylamino-ethyl)-methyl-amino]-methyl}-N-[3-(4-methyl-benzylidene-hydrazinocarbonyl)-4,5,6,7-tetrahydro-benzo-[b]thiophen-2-yl]-benzamide], for which the IC50 was 1.82 µM.
